Laboratory results from article PMC5688156, “The natural product carolacton inhibits folate-dependent C1 metabolism by targeting FolD/MTHFD” (Nature Communications, 2017).
Like-named read-outs stand apart in the source and are kept apart here.

Tests used:
[1] = target: T1, hsMTHFD1_DC (Homo sapiens, UniProt P11586); assay: hsMTHFD1_DC dehydrogenase (DH) enzyme assay; assay type: biochemical; conditions: hsMTHFD1 DC301
T1 construct: hsMTHFD1 DC301; His-tag (TEV-cleavable, vector pHis-TEV); made in house; host or cells: E. coli BL21 (DE3)
T1 sequence (P11586 2-291 limits assumed): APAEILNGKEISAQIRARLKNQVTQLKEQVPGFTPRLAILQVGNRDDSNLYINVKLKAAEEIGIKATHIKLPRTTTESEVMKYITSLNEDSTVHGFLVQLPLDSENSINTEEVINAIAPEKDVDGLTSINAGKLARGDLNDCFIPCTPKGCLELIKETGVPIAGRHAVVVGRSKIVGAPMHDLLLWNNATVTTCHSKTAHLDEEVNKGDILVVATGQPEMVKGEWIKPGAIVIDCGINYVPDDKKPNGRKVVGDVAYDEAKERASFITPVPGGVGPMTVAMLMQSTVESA
Method: (§1) (6R,S)-5,10-Methylene-5,6,7,8-tetrahydrofolic acid ((6R,S)-5,10-CH2-THF) calcium salt and (6R,S)-5,10-Methenyl-5,6,7,8-tetrahydrofolic acid ((6R,S)-5,10-CH=THF) chloride were purchased from Schircks Laboratories (Bauma, Switzerland) and used as substrates for FolD dehydrogenase and cyclohydrolase enzyme assays, respectively. Only the R-isomer, which accounts for 50% of (6R,S)-5,10-CH2-THF and (6R,S)-5,10-CH=THF, respectively, is used by the enzyme. (6R,S)-5,10-CH2-THF was dissolved in N2-spargeled basic buffer (50 mM Tris-HCl (pH 8.0), 100 mM β-mercaptoethanol) as described by Varshney et al.[25]. (6R,S)-5,10-CH=THF was dissolved in DMSO as a 100 mM stock solution.
Because FolD is a bifunctional enzyme, dehydrogenase and cyclohydrolase activities were determined for FolD enzyme kinetics, respectively. The dehydrogenase activity of FolD was assayed for its substrate 5,10-CH2-THF and cofactor NADP^+ (in the case of MTHFD2, NAD^+ was used as the cofactor) based on monitoring the formation of 5,10-CH=THF, while the cyclohydrolase activity of FolD was determined for its substrate 5,10-CH=THF by monitoring the hydrolysis of […]. The enzyme kinetics for the dehydrogenase activity of all FolDs except hsMTHFD1_DC were determined at 30 °C in 50 mM Tris-HCl (pH 7.5), 30 mM β-mercaptoethanol. The hsMTHFD1_DC dehydrogenase activity was measured in 25 mM MOPS (pH 7.3), 30 mM β-mercaptoethanol at 30 °C. To measure the enzyme kinetic constants for 5,10-CH2-THF, for example in the case of ecFolD, the NADP concentration was fixed at 1 mM and the concentration of 5,10-CH2-THF varied from 5 to 1500 μM (R-isomer). Similarly, to measure the kinetic constants of ecFolD for NADP^+, the concentration of 5,10-CH2-THF (R-isomer) was fixed at 1 mM and the concentration of NADP^+ varied from 10 to 1500 μM. For different FolDs, the varied concentration range of substrates could be different. […] To monitor the formation of 5,10-CH=THF, the absorbance of the reaction mixture was monitored at 350 nm in micro UV cuvettes (BRAND, Essex, Connecticut, USA). The concentration of 5,10-CH=THF produced in the reaction was determined using an extinction co-efficient of 0.0249 μM^−1 cm^−1. […] The consumption of 5,10-CH=THF was measured by recording the absorbance of the reactions at 355 nm using the TECAN Infinite 200 PRO equipped with a monochromator. […] The inhibition constants (K i) of carolacton on FolD were determined by measuring the apparent K m when adding certain amounts of carolacton to the enzyme reactions. […] To compare the inhibition effects of carolacton between the different FolDs, the half maximal inhibitory concentration (IC50) of carolacton on the same amount of enzyme was determined for FolDs involved in this study. […]

[2] = test system: E. coli DSM-1116 (WT); assay: MIC determination on E. coli DSM-1116 (WT); assay type: cell-based; conditions: Escherichia coli
Method: The determination of MICs was performed as described elsewhere. In brief, E. coli strains were treated with carolacton in serial dilution in either the presence or absence of sub-inhibitory concentrations of polymyxin B nonapeptide (PMBN; 3 µg/mL) and/or phenylalanine–arginine β-napthylamide (PAβN; 20 µg/mL) for 16 h at 37 °C in Mueller–Hinton broth. The MICs were assessed by visual inspection of the plates.

[3] = target: T2, ecFolD Q98H (Escherichia coli, UniProt P24186, Q98H); assay: ecFolD Q98H mutant dehydrogenase (DH) enzyme assay; assay type: biochemical, E. coli
T2 construct: His-tag (TEV-cleavable, vector pHis-TEV); made in house; host or cells: E. coli BL21 (DE3)
Method: as §1
Because FolD is a bifunctional enzyme, dehydrogenase and cyclohydrolase activities were determined for FolD enzyme kinetics, respectively. The dehydrogenase activity of FolD was assayed for its substrate 5,10-CH2-THF and cofactor NADP^+ (in the case of MTHFD2, NAD^+ was used as the cofactor) based on monitoring the formation of 5,10-CH=THF, while the cyclohydrolase activity of FolD was determined for its substrate 5,10-CH=THF by monitoring the hydrolysis of […]. The enzyme kinetics for the dehydrogenase activity of all FolDs except hsMTHFD1_DC were determined at 30 °C in 50 mM Tris-HCl (pH 7.5), 30 mM β-mercaptoethanol. […]

CO[C@H](CC(=O)O)[C@@H](C)C(=O)[C@H](C)/C=C(\C)[C@H]1OC(=O)[C@H](O)[C@H](O)/C=C/[C@H](C)CCC[C@@H]1C [carolacton]
IC50 ([1]; 10 nM enzyme, read-out: IC50, carolacton inhibition on DH activity): 0.038 µM
IC80 ([1]; 10 nM enzyme, read-out: IC80, carolacton inhibition on DH activity): 0.0776 µM
Ki ([1]; vs 5,10-CH2-THF, read-out: Ki (5,10-CH2-THF), carolacton inhibition on DH activity): 0.00593 µM
Ki ([1]; vs NADP+, read-out: Ki (NADP+), carolacton inhibition on DH activity): 0.0587 µM
MIC ([2]; DSM1116, + 3 µg/mL PMBN + 20 µg/mL PAβN, no full inhibition): 2 mg/L
MIC ([2]; DSM1116, + 3 µg/mL PMBN, cation-adjusted Mueller–Hinton broth): ≥ 64 mg/L
MIC ([2]; DSM1116, + 20 µg/mL PAβN (efflux inhibitor), no full inhibition): 2 mg/L
MIC ([2]; DSM1116, no additive, cation-adjusted Mueller–Hinton broth): > 64 mg/L
IC50 [3]: 0.313 µM
IC80 ([3]; read-out: IC80, carolacton inhibition on DH activity): 1.93 µM
